Test results taken from ChEMBL document CHEMBL1130440, “N-Methyl-2-[4-(2-methylpropyl)phenyl]-3-(3-methoxy-5-methylpyrazin-2-ylsulfamoyl)benzamide; one of a class of novel benzenesulphonamides which are orally-active, ETA-selective endothelin antagonists” (Bioorg Med Chem Lett, 1997).

Columns and labels:
[1] = biological target: T1, Endothelin-1 receptor (Homo sapiens, UniProt P25101); assay: In vitro binding was measured by the displacement of [125I]ET1 from membranes prepared from MEL cells transfected with cloned human ETA receptors; format: cell membranes
T1 sequence (P25101 whole entry): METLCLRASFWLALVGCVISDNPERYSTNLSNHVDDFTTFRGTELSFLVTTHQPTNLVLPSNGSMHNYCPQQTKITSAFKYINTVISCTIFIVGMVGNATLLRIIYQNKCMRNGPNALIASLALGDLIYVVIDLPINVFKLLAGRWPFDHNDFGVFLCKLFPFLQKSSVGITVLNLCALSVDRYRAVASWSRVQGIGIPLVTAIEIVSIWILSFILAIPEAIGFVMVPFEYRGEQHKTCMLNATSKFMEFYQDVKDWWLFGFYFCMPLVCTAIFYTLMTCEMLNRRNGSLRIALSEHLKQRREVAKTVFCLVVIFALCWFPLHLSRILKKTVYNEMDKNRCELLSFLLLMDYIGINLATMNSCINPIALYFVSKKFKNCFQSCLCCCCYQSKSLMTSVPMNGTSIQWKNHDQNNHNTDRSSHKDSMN

[2] = system: Rattus norvegicus; assay: In vivo mean dose ratio (MDR) activity against the pressor response induced by big ET-1 in alderley park rats at 1 hr after (1 mg/kg) oral administration; format: functional
[3] = system: Rattus norvegicus; assay: In vivo mean dose ratio(MDR) activity against the pressor response induced by big ET-1 in alderley park rats at 30 min after (2.5 mg/kg) oral administration; format: functional
[4] = system: Rattus norvegicus; assay: In vivo mean dose ratio(MDR) activity against the pressor response induced by big ET-1 in alderley park rats at 2 hr after (2.5 mg/kg) oral administration; format: functional
[5] = system: Rattus norvegicus; assay: In vivo mean dose ratio(MDR) activity against the pressor response induced by big ET-1 in alderley park rats at 4 hr after (2.5 mg/kg) oral administration; format: functional

IC50 [1] [nM] | Compound | MDR [2] | further results
200 | CCCCCNC(=O)c1cccc(S(=O)(=O)Nc2ncc(Br)nc2OC)c1-c1ccc(CC(C)C)cc1 | – | –
1 | COc1nc(C)cnc1NS(=O)(=O)c1cccc(C(N)=O)c1-c1ccc(CC(C)C)cc1 | 2.4 | –
1.26 | CNC(=O)c1cccc(S(=O)(=O)Nc2ncc(Br)nc2OC)c1-c1ccc(CC(C)C)cc1 | 2.7 | –
1.58 | COCCNC(=O)c1cccc(S(=O)(=O)Nc2ncc(Br)nc2OC)c1-c1ccc(CC(C)C)cc1 | 2.1 | –
31.6 | COc1nc(Br)cnc1NS(=O)(=O)c1ccccc1-c1ccccc1 | – | –
2.51 | COc1nc(C)cnc1NS(=O)(=O)c1cccc(C(=O)N(C)C)c1-c1ccc(CC(C)C)cc1 | 1.6 | –

More lines, now with the values behind:

Compound | IC50 [1] [nM] | MDR [2] | further results
COc1nc(Br)cnc1NS(=O)(=O)c1cccc(C(=O)N(C)C)c1-c1ccc(CC(C)C)cc1 | 1 | – | –
CCCCCNC(=O)c1cccc(S(=O)(=O)Nc2ncc(Br)nc2OC)c1-c1ccccc1 | 3.98 | – | –
COc1nc(C)cnc1NS(=O)(=O)c1cccc(C(=O)NCCO)c1-c1ccc(CC(C)C)cc1 | 0.631 | 4.2 | –
CNC(=O)c1cccc(S(=O)(=O)Nc2ncc(C)nc2OC)c1-c1ccc(CC(C)C)cc1 | 0.501 | 3.2 | Oral activity [3]: 6.2; Oral activity [4]: 3.3; Oral activity [5]: 4
CNC(=O)c1cccc(S(=O)(=O)Nc2ncc(Br)nc2OC)c1-c1ccccc1 | 39.8 | – | –
COc1nc(Br)cnc1NS(=O)(=O)c1cccc(C(N)=O)c1-c1ccccc1 | 39.8 | – | –
COc1nc(Br)cnc1NS(=O)(=O)c1cccc(C(N)=O)c1-c1ccc(CC(C)C)cc1 | 0.794 | – | –
COCCNC(=O)c1cccc(S(=O)(=O)Nc2ncc(C)nc2OC)c1-c1ccc(CC(C)C)cc1 | 0.501 | 3.2 | –
COc1nc(Br)cnc1NS(=O)(=O)c1ccccc1-c1ccc(CC(C)C)cc1 | 39.8 | – | –
